# Assay results as given in patent US9073917B2, “Anti-cancer compound and pharmaceutical composition containing the same” (SANOFI, priority 2009, dated 2015).
# Where two headings read alike, the source gives them in different places.
# How the values were obtained:
# [1] = Clearance in the presence of human hepatocytes; type: in vitro ADME; details: 0.5 or 5 μM, 24 hours, average over different preparations of hepatocytes
# Procedure: The LC/MS-MS analysis is performed on a QTRAP API4000 mass spectrometer (Sciex) equipped with an 1100 series chromatography system (Agilent) and a Pal CTC automatic injector. The data are acquired and analysed using Analyst 1.4.1 software. The samples are separated on a 3 μm C18 Polaris column, eluted at a flow rate of 0.7 ml/min with a gradient from acetonitrile (solvent B) into water containing 0.1% formic acid (solvent A). The elution programme is composed of the gradient from 20 to 90% of solvent B in 2 minutes, an isocratic stage at 90% of solvent B, for 0.9 minute, and a return to the initial conditions in 0.1 minute.
# [2] = Metabolism in the presence of murine microsomal liver fractions; type: in vitro ADME; details: percentage disappearance, 5 μM, 20 minutes; for Mouse microsome: 1 mg/ml proteins, NADPH
# Procedure: (§1) Evaluation of the Metabolism in the Presence of Microsomal Preparations of Human and Murine Livers.
# (§2) The compounds of the invention (5 μM) are incubated at physiological temperature over human and murine microsomal liver fractions (1 mg/ml of proteins), diluted in a phosphate buffer, in the presence of bovine serum albumin (1 mg/ml BSA), and the reduced form of nicotinamide adenine dinucleotide phosphate (1 mM NADPH). To terminate incubation, four volumes of acetonitrile containing corticosterone as internal standard (IS) are added. The samples are centrifuged and the supernatants are analysed by liquid chromatography/tandem mass spectrometry coupling (LC/MS-MS). The LC/MS-MS analysis is performed on a QTRAP API4000 mass spectrometer (Sciex) equipped with an 1100 series chromatography system (Agilent) and a Pal CTC automatic injector. The data are acquired and analysed using Analyst 1.4.1 software. The samples are separated on a 3 μm C18 Polaris column, eluted at a flow rate of 0.7 ml/min with a gradient from acetonitrile (solvent B) into water containing 0.1% formic acid (solvent A). The elution programme is composed of the gradient from 20 to 90% of solvent B in 2 minutes, an isocratic stage at 90% of solvent B, for 0.9 minute, and a return to the initial conditions in 0.1 minute. The area of the chromatographic peaks for the compound and for the internal standard are integrated using the Analyst-Classic algorithm. The metabolic stability of the products of the invention is estimated by comparing the integration ratios (ion currents of the compounds/ion current IS) measured after 0 minute (t0) and 20 minutes (t20) of incubation. The metabolic stability is then expressed as a percentage disappearance in accordance with the following formula: Metabolism %=(ratio of peaks at t0−ratio of peaks at t20)/ratio of peaks at t0
# Aurora B/Incenp = Aurora B/Incenp (Homo sapiens (Human), UniProt Q96GD4); experiment: Aurora B/Incenp kinase activity, radioactive 33P incorporation into NuMA fragment
# Aurora B/Incenp, sequence (Q96GD4 whole entry, the tested form may be a part): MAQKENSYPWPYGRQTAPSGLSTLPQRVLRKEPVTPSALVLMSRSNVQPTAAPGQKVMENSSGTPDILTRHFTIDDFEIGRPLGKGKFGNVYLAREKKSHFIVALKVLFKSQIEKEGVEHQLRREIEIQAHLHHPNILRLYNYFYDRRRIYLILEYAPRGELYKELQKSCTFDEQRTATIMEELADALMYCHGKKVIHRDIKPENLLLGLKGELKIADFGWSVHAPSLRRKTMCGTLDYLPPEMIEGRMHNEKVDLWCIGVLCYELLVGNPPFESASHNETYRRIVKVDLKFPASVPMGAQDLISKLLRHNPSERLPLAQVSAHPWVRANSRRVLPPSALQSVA
# Aurora B/Incenp, sequence (Q9NQS7 821-918 partner): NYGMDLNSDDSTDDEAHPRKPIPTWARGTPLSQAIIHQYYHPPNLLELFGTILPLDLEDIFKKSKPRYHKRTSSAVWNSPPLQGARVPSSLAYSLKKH
# Procedure: (§3) The kinase activity is measured by a radioactive assay of the amount of radioactive phosphate (^33P) incorporated into a fragment of the protein NuMA (Nuclear Mitotic Apparatus protein) after 30 minutes of incubation at 37° C. […] In each plate, there are eight control wells: four positive controls (maximum kinase activity), for which measurement is made in the presence of enzyme and substrate and in the absence of compound of the invention, and four negative controls (background) for which measurement is made in the absence of enzyme, substrate and test compound.
# The two proteins form a complex which is called Aurora B/Incenp. […] This fragment is used as substrate.
# PDE3A = PDE3A (Homo sapiens (Human), UniProt Q14432); experiment: Effect on the activity of the enzyme PDE3 (CEREP, HTRF); details: for IC50: read-out: IC50 PDE3, recombinant PDE3A, substrate cAMP; for inhibition at 1 µM: read-out: PDE3 inhibition at 1000 nM
# PDE3A, sequence (Q14432 whole entry): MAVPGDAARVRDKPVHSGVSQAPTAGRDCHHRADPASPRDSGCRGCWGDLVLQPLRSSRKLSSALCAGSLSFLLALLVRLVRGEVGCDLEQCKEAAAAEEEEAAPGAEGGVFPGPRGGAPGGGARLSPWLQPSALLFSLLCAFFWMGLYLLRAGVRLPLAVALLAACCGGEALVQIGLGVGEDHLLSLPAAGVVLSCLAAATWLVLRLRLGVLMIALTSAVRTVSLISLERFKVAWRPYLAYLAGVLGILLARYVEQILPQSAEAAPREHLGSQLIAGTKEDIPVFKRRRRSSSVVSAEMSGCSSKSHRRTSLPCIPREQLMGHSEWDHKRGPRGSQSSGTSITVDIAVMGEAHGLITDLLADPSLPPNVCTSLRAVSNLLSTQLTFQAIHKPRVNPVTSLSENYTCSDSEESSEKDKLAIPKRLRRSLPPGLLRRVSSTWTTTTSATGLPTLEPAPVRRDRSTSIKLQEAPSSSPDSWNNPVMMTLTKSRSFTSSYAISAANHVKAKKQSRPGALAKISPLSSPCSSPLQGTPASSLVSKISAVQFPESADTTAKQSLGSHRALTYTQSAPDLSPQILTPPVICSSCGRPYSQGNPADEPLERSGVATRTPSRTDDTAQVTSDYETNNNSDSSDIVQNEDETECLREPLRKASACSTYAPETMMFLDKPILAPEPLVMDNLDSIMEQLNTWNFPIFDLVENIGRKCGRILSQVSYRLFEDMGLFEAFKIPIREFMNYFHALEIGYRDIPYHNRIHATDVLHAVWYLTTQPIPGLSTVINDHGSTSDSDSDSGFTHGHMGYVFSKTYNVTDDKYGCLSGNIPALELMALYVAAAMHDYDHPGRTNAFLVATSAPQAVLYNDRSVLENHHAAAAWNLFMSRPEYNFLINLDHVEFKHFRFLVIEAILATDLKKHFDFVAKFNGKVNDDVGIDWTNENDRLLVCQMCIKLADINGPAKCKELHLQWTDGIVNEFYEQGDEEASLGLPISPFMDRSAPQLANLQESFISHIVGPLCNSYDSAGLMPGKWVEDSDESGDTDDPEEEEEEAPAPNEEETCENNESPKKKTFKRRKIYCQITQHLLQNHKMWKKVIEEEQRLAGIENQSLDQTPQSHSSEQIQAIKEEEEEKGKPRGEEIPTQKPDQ
# Description: Evaluation of the Effect of the Compounds of the Invention on the Activity of the Enzyme PDE3
# [3] = Chemical stability in various media (HPLC); type: physicochemical; details: 100 μM, 20° C., 48 hours
# Procedure: Measurement of the Chemical Stability of the Compounds
# The compounds are diluted in the media under study at a final concentration of 100 μM, by dilution of a 10 mM stock solution in DMSO. The solutions are stored at 20° C. for a total time of 48 hours, and the concentration of the compounds under study is measured over time (t=0, 1, 6, 12, 24 and 48 hours) by HPLC. HPLC analysis is carried out with an Agilent system 1100 instrument equipped with a diode array detector on a Luna 018 column, 30×4.6 mm, 3 μm (Phenomenex) which is eluted with a gradient from acetonitrile (solvent B) into water containing 0.5% (v/v) of formic acid (solvent A) at a flow rate of 1.5 ml/min and a temperature of 25° C. The elution programme consists of a gradient from 10 to 90% solvent B in 5 minutes, followed by an isocratic stage of one minute at 90% of solvent B, and return to the initial conditions over one minute. The concentration of the products under study is estimated from the height and area of the characteristic peak of the product under study on a chromatogram at the maximum wavelength of each product. The area and the height measured at each time of sampling are related to the area and height obtained for the sample at time 0. When degradation is observed, a half-life is measured from the resulting time-concentration curve.
# [4] = Metabolism in the presence of human microsomal liver fractions; type: in vitro ADME; details: percentage disappearance, 5 μM, 20 minutes; for Human microsome: 1 mg/ml proteins, NADPH
# Procedure: as §1, §2
# HCT116 [5] = details: read-out: IC50 HCT116; HCT116, 96 hours treatment
# Procedure: (§4) The cell proliferation is estimated by the amount of ^14C-thymidine incorporated in the cells.
# (§5) D0: the cells are seeded in 96-well Cytostar plates in 180 μL of culture medium. The plates are then placed in an incubator at 37° C., 5% CO2 for four hours. The test products are then added in a volume of 10 μL per well, starting from a 20× solution. This solution contains 2% of DMSO in the culture medium. The final concentration of DMSO is therefore 0.1%. The plates are then placed in an incubator at 37° C./5% CO2 for 72 hours. D3: after 72 hours, 10 μL per well of ^14C-thymidine at 10 μCi/mL in the culture medium are added. The plates are then placed in an incubator at 37° C., 5% CO2 for 24 hours. D4: The incorporation of ^14C thymidine is measured on a Micro-Beta radioactivity counter (Perkin-Elmer) after this 24-hour, “pulse” period. The total time of treatment of the cells with the test product is 96 hours.
# (§6) The percentage inhibitions IC50 are calculated in Excel using the following formula:
# (§7) [formula] X=Measurement for the Sample CC=Cell Control Blank=Measurement in the wells without cells
# tumour cell line HeLa = experiment: Cell proliferation, 14C-thymidine incorporation, HeLa; type: cell-based
# Description: Measurement of the Cell Proliferation
# HCT116 [6] = experiment: cells; details: Homo sapiens, HCT-116, 96 h, read-out: IC50 HCT116
# Procedure: as §4, §5, §6, §7
# Aurora A = Aurora A (Homo sapiens (Human), UniProt O14965); experiment: Aurora A kinase activity, radioactive 33P incorporation into NuMA fragment
# Aurora A, sequence (O14965 whole entry, the tested form may be a part): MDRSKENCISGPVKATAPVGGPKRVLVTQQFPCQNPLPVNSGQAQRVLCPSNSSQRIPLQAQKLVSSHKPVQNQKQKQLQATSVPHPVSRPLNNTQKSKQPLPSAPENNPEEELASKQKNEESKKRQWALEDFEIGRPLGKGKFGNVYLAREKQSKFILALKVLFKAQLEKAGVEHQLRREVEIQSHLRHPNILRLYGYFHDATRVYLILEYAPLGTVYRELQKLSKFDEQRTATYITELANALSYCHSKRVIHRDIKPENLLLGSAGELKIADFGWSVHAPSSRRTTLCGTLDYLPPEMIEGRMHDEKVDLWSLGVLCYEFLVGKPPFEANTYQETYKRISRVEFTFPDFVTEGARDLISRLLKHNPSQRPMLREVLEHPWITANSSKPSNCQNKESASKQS
# Procedure: as §3
# The recombinant human enzyme Aurora A used is expressed in entire form with a poly-Histidine tag in N-terminal position and is produced in E. coli.
# [7] = Homo sapiens, 96 h, read-out: IC50 HeLa
# [8] = read-out: IC50 Aurora A, 10 nM Aurora A, 1 μM ATP, 500 nM NuMA, 30 min at 37° C.
# [9] = Homo sapiens, 96 hours treatment, read-out: IC50 HeLa (converted)
IC50 (Aurora B/Incenp) [nM],IC50 (tumour cell line HeLa; [9]) [nM],SMILES,Mouse microsome [2] [%],Human microsome [4] [%],IC50 (tumour cell line HeLa; [7]) [nM],also measured
–,–,"CCOC(=O)c1[nH]cc2c1NC1=C(C(=O)CCC1)C2c1cccc(Oc2nc3ccccc3[nH]2)c1 (stereo not shown) [Example 2, ethyl 8-oxo-9-[3-(1H-benzimidazol-2-yloxy)phenyl]-4,5,6,7,8,9-hexahydro-2H-pyrrole[3,4-b]quinoline-3-carboxylate]",50,32,–,"Intrinsic clearance measured in the presence of human hepatocytes [1]: 0.121 (average of 5 determinations obtained with 5 ml · h^−1 · 10^−6 cells; Metabolism measured in the presence of murine microsomal fraction [2]: 50%; IC50 (Aurora B/Incenp; read-out: IC50 Aurora B/Incenp): 1 nM; IC50 (PDE3A): 4000 nM; Chemical stability, HCl 0.05N 50/50 water/acetonitrile [3]: stable; Chemical stability, NaOH 0.05N 50/50 water/acetonitrile [3]: stable; Chemical stability, Phosphate buffer 25 mM pH = 7.4 50/50 water/acetonitrile [3]: stable; Chemical stability, Phosphate buffer 25 mM pH = 7.4 + 1% 2-mercaptoethanol 50/50 water/acetonitrile [3]: stable; Chemical stability, Phosphate buffer 25 mM pH = 7.4 + 1% benzylamine 50/50 water/acetonitrile [3]: stable; Metabolism measured in the presence of human microsomal fraction [4]: 32%; IC50 (HCT116 [5]): 20 nM; IC50 (tumour cell line HeLa; 96 hours treatment, read-out: IC50 HeLa (converted)): 67 nM"
–,–,CCOC(=O)c1[nH]cc2c1NC1=C(C(=O)CCC1)[C@@H]2c1ccc(Sc2nc3ccccc3[nH]2)o1 [Example 12],81,75,16,"Intrinsic clearance measured in the presence of human hepatocytes [1]: 0.29 (average of 3 determinations obtained with 3 ml · h^−1 · 10^−6 cells; Metabolism measured in the presence of murine microsomal fraction [2]: 81%; IC50 (PDE3A): 68 nM; Chemical stability, HCl 0.05N 50/50 water/acetonitrile [3]: stable; Chemical stability, NaOH 0.05N 50/50 water/acetonitrile [3]: stable; Chemical stability, Phosphate buffer 25 mM pH = 7.4 50/50 water/acetonitrile [3]: stable; Chemical stability, Phosphate buffer 25 mM pH = 7.4 + 1% 2-mercaptoethanol 50/50 water/acetonitrile [3]: unstable; Chemical stability, Phosphate buffer 25 mM pH = 7.4 + 1% benzylamine 50/50 water/acetonitrile [3]: stable; IC50 (HCT116 [6]): 1 nM; Metabolism measured in the presence of human microsomal fraction [4]: 75%"
6,9630,O=C1CCCC2=C1C(c1cccc(Oc3nc4ccccc4[nH]3)c1)c1c[nH]nc1N2 (stereo not shown) [Example 5],–,–,–,IC50 (Aurora A; [8]): 23 nM
21,6860,CCOC(=O)c1[nH]cc2c1NC1=C(C(=O)CC(C)(C)C1)C2c1cccc(Sc2nc3ccccc3[nH]2)c1 (stereo not shown) [Example 8],84,80,–,IC50 (Aurora A): 102 nM
10,20,CCOC(=O)c1[nH]cc2c1NC1=C(C(=O)CCC1)C2c1ccc(Sc2nc3cccc(OC)c3[nH]2)o1 (stereo not shown) [Example 13],74,53,–,inhibition at 1 µM (PDE3A): 93%
9,6690,CC1(C)CC(=O)C2=C(C1)Nc1n[nH]cc1C2c1cccc(Oc2nc3ccccc3[nH]2)c1 (stereo not shown) [Example 10],–,–,–,IC50 (Aurora A; [8]): 22 nM
4,430,CCOC(=O)c1[nH]cc2c1NC1=C(C(=O)CC(C)(C)C1)C2c1cccc(Oc2nc3ccccc3[nH]2)c1 (stereo not shown) [Example 7],96,65,–,IC50 (Aurora A): 3 nM

SMILES,IC50 (Aurora B/Incenp) [nM],IC50 (tumour cell line HeLa; [9]) [nM],Mouse microsome [2] [%],Human microsome [4] [%],IC50 (tumour cell line HeLa; [7]) [nM],also measured
O=C1CNCC2=C1C(c1cccc(Oc3nc4ccccc4[nH]3)c1)c1c[nH]nc1N2 (stereo not shown) [Example 6],13,–,–,–,> 10000,–
"CCOC(=O)c1[nH]cc2c1NC1=C(C(=O)CCC1)C2c1cccc(Oc2nc3ccccc3[nH]2)c1 (single isomer, unassigned) [Example 3, ethyl 8-oxo-9-[3-(1H-benzimidazol-2-yloxy)phenyl]-4,5,6,7,8,9-hexahydro-2H-pyrrolo[3,4-b]quinoline-3-carboxylate]",900,–,–,–,> 10000,–
CCOC(=O)c1[nH]cc2c1NC1=C(C(=O)CCC1)C2c1cccc(Sc2nc3ccccc3[nH]2)c1 (stereo not shown) [Example 4],6,–,67,77,9660,–
"CCOC(=O)c1[nH]cc2c1NC1=C(C(=O)CCC1)C2c1cccc(Oc2nc3ccccc3[nH]2)c1 (racemic) [Example 1, ethyl 8-oxo-9-[3-(1H-benzimidazol-2-yloxy)phenyl]-4,5,6,7,8,9-hexahydro-2H-pyrrolo[3,4-b]quinoline-3-carboxylate]",4,–,31,37,205,inhibition at 1 µM (PDE3A): 78%
